# Source: US20040006142A1, “Ocular tension depressor” (priority 2002, published 2004)
# Assay: Ocular tension (IOP) lowering in rabbits after eye drop, Tonopen XL tonometer
# Format: in vivo, Rabbits (New Zealand albino)
# Conditions: eye drop of 0.5% preparation, 50 μL; for AUC0-8 hr Δ IOP % mean ± S.D.: IOP before, 2.5 h and 8 h after treatment, trapezoidal rule, change relative to pre-treatment; for ocular tension compared with the control group: p < 0.05 vs medium control
# Description: Rabbits (New Zealand albino, body weight: 2.0 to 2.5 kg) having ocular tension of 15 mmHg before treated were used in this experiment. Experimental group of the rabbits were treated with an eye drop of the preparation of a 0.5% concentration of the compounds A and B with a dosage of 50 μL at a time. Control group of the rabbits were treated with an eye drop of a medium (ophthalmic solutions containing 0.40% of NaH2PO4, 0.47% of NaHPO4, 0.47% of NaCl, and 1.0% of polysorbate 80 with pH 6.8) with the same dosage as in the experimental group at a time. The ocular tension of the experimental group and the control group was measured with a Tonopen™ XL tonometer before treatment, 2.5 hours, and 8 hours after treatment.
# Next, a ratio of ocular tension change relative to ocular tension measured before treatment (Δ IOP %) was calculated, and an area (AUC0-8hr Δ IOP %) defined by the area under the curve obtained by plotting out Δ IOP % with respect to the horizontal axis representing lapse of time was calculated in accordance with a method of trapezoidal rule.
Compound,AUC0-8 hr Δ IOP % mean ± S.D. [%],ocular tension compared with the control group
"COc1cc(C(=O)N(C)c2ccc(C)cc2OCCCCCC(=O)N2CCN(C)CC2)ccc1NC(=O)c1ccccc1OCCCN [Compound A, 4-[2-(3-aminopropyl-1-yl)oxy]benzoylamino-3-methoxy-N-methyl-N-{4-methyl-2-[5-(4-methylpiperazin-1-yl)carbonylpent-1-yloxy]phenyl}benzamide]",−147.0 ± 89.0,significantly lowered
"Cc1ccc(-c2ccccc2C(=O)Nc2ccc(C(=O)N3CCC(=O)N(CC(=O)N4CCN(C)CC4)c4ccccc43)cc2)cc1 [Compound B, 5-{4-[2-(4-methylphenyl)benzoylamino]benzoyl}-1-[(4-methyl-1-piperazinyl)carbonylmethyl]-1,3,4,5-tetrahydro-1,5-benzodi azepin-2(2H)-one]",−145.8 ± 87.7,significantly lowered
